In patent US20250197403A1, “HETEROARYL COMPOUNDS FOR TREATMENT OF COMPLEMENT FACTOR D MEDIATED DISORDERS” (Achillion Pharmaceuticals, Inc., priority 2020, published 2025):

Target: Human Factor D (Homo sapiens (Human), UniProt P00746)
Experiment: Human Factor D Assay
Assay type: biochemical
Details: Human Factor D 80 nM, substrate Z-L-Lys-SBzl, assay according to Example 3
Experimental: The assay according to Example 3 was used to determine the IC50's of the compounds. Other standard factor D inhibition assays are also available.
Human Factor D (purified from human serum, Complement Technology, Inc.) at 80 nM final concentration is incubated with test compound at various concentrations for 5 min at room temperature in 50 mM Tris, 1M NaCl, pH 7.5. A synthetic substrate Z-L-Lys-SBzl and DTNB (Ellman's reagent) are added to final concentrations of 100 μM each. Absorbance at 405 nm (A405) is recorded at 30 second intervals for 30 min using a microplate spectrophotometer. IC50 values are calculated by nonlinear regression of complement Factor D reaction rates as a function of test compound concentration.

Chain of Human Factor D (P00746 26-253): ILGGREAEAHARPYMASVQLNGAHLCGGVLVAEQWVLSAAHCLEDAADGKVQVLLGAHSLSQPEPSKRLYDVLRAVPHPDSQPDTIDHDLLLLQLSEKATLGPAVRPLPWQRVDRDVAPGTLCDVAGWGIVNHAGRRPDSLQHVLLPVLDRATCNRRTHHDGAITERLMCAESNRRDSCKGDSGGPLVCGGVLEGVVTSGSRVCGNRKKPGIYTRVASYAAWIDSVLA

Compound | IC50 [µM]
COCc1ccc(C(F)(F)F)nc1NC(=O)[C@@H]1C[C@@]2(C)C[C@H]2N1C(=O)Cn1cc(C(C)=O)c2cc(-c3cnc(C)nc3)cc(C)c21 [Compound 52, (1R,3S,5R)-2-(2-(3-acetyl-7-methyl-5-(2-methylpyr-imidin-5-yl)-1H-indol-1-yl)acetyl)-N-(3-(methoxy-methyl)-6-(trifluorometh-yl)pyridin-2-yl)-5-methyl-2-azabicyclo[3.1.0]hexane-3-carboxamide] | < 1
COCc1ccc(C(F)(F)F)nc1NC(=O)[C@@H]1C[C@@]2(C)C[C@H]2N1C(=O)Cn1cc(C(C)=O)c2cc(-c3ccc4nc(C)nn4c3)cc(C)c21 [Compound 40, (1R,3S,5R)-2-(2-(3-acetyl-7-methyl-5-(2-methyl-[1,2,4]triazolo[1,5-a]pyr-idin-6-yl)-1H-indol-1-yl)-acetyl)-N-(3-(methoxy-methyl)-6-(trifluorometh-yl)pyridin-2-yl)-5-methyl-2-azabicyclo[3.1.0]hexane-3-carboxamide] | < 1
COCc1ccc(C(F)(F)F)nc1NC(=O)[C@@H]1C[C@@]2(C)C[C@H]2N1C(=O)Cn1cc(C(C)=O)c2cc(-c3cnc4cc(C)nn4c3)cc(C)c21 [Compound 53, (1R,3S,5R)-2-(2-(3-acetyl-7-methyl-5-(2-methylpyr-azolo[1,5-a]pyrimidin-6-yl)-1H-indol-1-yl)acetyl)-N-(3-(methoxymethyl)-6-(trifluoromethyl)pyridin-2-yl)-5-methyl-2-azabicyclo [3.1.0]hexane-3-carbox-amide] | < 1
CC(=O)c1cn(CC(=O)N2[C@H](C(=O)N[C@H](C)C(F)=C(C)C)C[C@@]3(C)C[C@@H]23)c2c(C)nc(-c3cnc4cc(C)nn4c3)cc12 [Compound 29, (1R,3S,5R)-2-(2-(3-acetyl-7-methyl-5-(2-methylpyr-azolo[1,5-a]pyrimidin-6-yl)-1H-pyrrolo[2,3-c]pyr-idin-1-yl)acetyl)-N-((R)-3-fluoro-4-methylpent-3-en-2-yl)-5-methyl-2-azabi-cyclo[3.1.0]hexane-3-car-boxamide] | < 1
CC(=O)c1cn(CC(=O)N2[C@H](C(=O)Nc3nc(C(F)(F)F)cc(F)c3C)C[C@@]3(C)C[C@@H]23)c2c(C)cc(-c3cnc4cc(C)nn4c3)cc12 [Compound 12, (1R,3S,5R)-2-(2-(3-acetyl-7-methyl-5-(2-methylpyr-azolo[1,5-a]pyrimidin-6-yl)-1H-indol-1-yl)acetyl)-N-(4-fluoro-3-methyl-6-(trifluoromethyl)pyridin-2-yl)-5-methyl-2-azabicyclo [3.1.0]hexane-3-carbox-amide] | < 1
CC(=O)c1cn(CC(=O)N2[C@H](C(=O)Nc3nc(C(F)(F)F)ccc3Cl)C[C@@]3(C)C[C@@H]23)c2c(C)nc(-c3cnc(C)nc3)cc12 [Compound 42, (1R,3S,5R)-2-(2-(3-acetyl-7-methyl-5-(2-methylpyr-imidin-5-yl)-1H-pyrrolo [2,3-c]pyridin-1-yl)acetyl)-N-(3-chloro-6-(trifluoro-methyl)pyridin-2-yl)-5-methyl-2-azabicyclo[3.1.0] hexane-3-carboxamide] | < 1
CC(=O)c1cn(CC(=O)N2C[C@H]3C[C@H]3[C@H]2C(=O)Nc2nc(Br)ccc2C)c2c(C)cc(-c3cnc4cc(C)nn4c3)cc12 [Compound 63, (1R,2S,5S)-3-(2-(3-acetyl-7-methyl-5-(2-methylpyr-azolo[1,5-a]pyrimidin-6-yl)-1H-indol-1-yl)acetyl)-N-(6-bromo-3-methylpyr-idin-2-yl)-3-azabicyclo [3.1.0]hexane-2-carbox-amide] | < 1
CC(=O)c1nn(CC(=O)N2[C@H](C(=O)Nc3nc(Br)c(F)cc3C)C[C@@]3(C)C[C@@H]23)c2c(C)cc(-c3cnc([C@@H](C)O)nc3)cc12 [Compound 18, (1R,3S,5R)-2-(2-(3-acetyl-5-(2-((R)-1-hydroxyethyl)-pyrimidin-5-yl)-7-methyl-1H-indazol-1-yl)acetyl)-N-(6-bromo-5-fluoro-3-meth-ylpyridin-2-yl)-5-methyl-2-azabicyclo[3.1.0]hexane-3-carboxamide] | < 1
CC(=O)c1cn(CC(=O)N2[C@H](C(=O)N[C@H](C)C(F)=C(C)C)C[C@@]3(C)C[C@@H]23)c2c(C)cc(-c3cnc(C)nc3)cc12 [Compound 28, (1R,3S,5R)-2-(2-(3-acetyl-7-methyl-5-(2-methylpyr-imidin-5-yl)-1H-indol-1-yl)acetyl)-N-((R)-3-fluoro-4-methylpent-3-en-2-yl)-5-methyl-2-azabicyclo[3.1.0] hexane-3-carboxamide] | < 1
CC(=O)c1cn(CC(=O)N2[C@H](C(=O)Nc3nc(C(F)(F)F)cc(F)c3C)C[C@@]3(C)C[C@@H]23)c2c(C)cc(-c3ccc4nc(C)nn4c3)cc12 [Compound 58, (1R,3S,5R)-2-(2-(3-acetyl-7-methyl-5-(2-methyl-[1,2,4]triazolo[1,5-a]pyr-idin-6-yl)-1H-indol-1-yl)-acetyl)-N-(4-fluoro-3-methyl-6-(trifluorometh-yl)pyridin-2-yl)-5-methyl-2-azabicyclo[3.1.0]hexane-3-carboxamide] | < 1
CC(=O)c1cn(CC(=O)N2[C@H](C(=O)Nc3nc(C(F)(F)F)ccc3Cl)C[C@@]3(C)C[C@@H]23)c2c(C)cc(-c3ccc4nc(C)nn4c3)cc12 [Compound 3, (1R,3S,5R)-2-(2-(3-acetyl-7-methyl-5-(2-methyl-[1,2,4]triazolo[1,5-a]pyr-idin-6-yl)-1H-indol-1-yl)-acetyl)-N-(3-chloro-6-(tri-fluoromethyl)pyridin-2-yl)-5-methyl-2-azabicyclo-[3.1.0]hexane-3-carbox-amide] | < 1
CC(=O)c1cn(CC(=O)N2C[C@H](F)C[C@H]2C(=O)Nc2ccn(CC(F)(F)F)n2)c2c(C)cc(-c3cnc4cc(C)nn4c3)cc12 [Compound 66, (2S,4R)-1-(2-(3-acetyl-7-methyl-5-(2-methylpyr-azolo[1,5-a]pyrimidin-6-yl)-1H-indol-1-yl)acetyl)-4-fluoro-N-(1-(2,2,2-tri-fluoroethyl)-1H-pyrazol-3-yl)pyrrolidine-2-carbox-amide] | < 1
COCc1ccc(C(F)(F)F)nc1NC(=O)[C@@H]1[C@@H]2C[C@@H]2CN1C(=O)Cn1cc(C(C)=O)c2cc(-c3ccc4nc(C)nn4c3)cc(C)c21 [Compound 4, (1R,2S,5S)-3-(2-(3-acetyl-7-methyl-5-(2-methyl-[1,2,4]triazolo[1,5-a]pyr-idin-6-yl)-1H-indol-1-yl)-acetyl)-N-(3-(methoxy-methyl)-6-(trifluorometh-yl)pyridin-2-yl)-3-aza-bicyclo[3.1.0]hexane-2-carboxamide] | < 1
CC(=O)c1cn(CC(=O)N2[C@H](C(=O)Nc3nc(Br)ccc3Cl)C[C@@]3(C)C[C@@H]23)c2c(C)nc(-c3cnc(C)nc3)cc12 [Compound 21, (1R,3S,5R)-2-(2-(3-acetyl-7-methyl-5-(2-methylpyr-imidin-5-yl)-1H-pyrrolo [2,3-c]pyridin-1-yl)acetyl)-N-(6-bromo-3-chloropyr-idin-2-yl)-5-methyl-2-aza-bicyclo[3.1.0]hexane-3-carboxamide] | < 1
CC(=O)c1cn(CC(=O)N2[C@H](C(=O)Nc3nc(C(F)(F)F)ncc3C)C[C@@]3(C)C[C@@H]23)c2c(C)cc(-c3cnc(C)nc3)cc12 [Compound 57, (1R,3S,5R)-2-(2-(3-acetyl-7-methyl-5-(2-methylpyr-imidin-5-yl)-1H-indol-1-yl)acetyl)-5-methyl-N-(5-methyl-2-(trifluorometh-yl)pyrimidin-4-yl)-2-aza-bicyclo[3.1.0]hexane-3-carboxamide] | < 1
CC(=O)c1cn(CC(=O)N2[C@H](C(=O)Nc3nc(C(F)(F)F)ccc3C)C[C@@]3(C)C[C@@H]23)c2c(CF)cc(-c3cnc4cc(C)nn4c3)cc12 [Compound 46, (1R,3S,5R)-2-(2-(3-acetyl-7-(fluoromethyl)-5-(2-methylpyrazolo[1,5-a]pyr-imidin-6-yl)-1H-indol-1-yl)acetyl)-5-methyl-N-(3-methyl-6-(trifluorometh-yl)pyridin-2-yl)-2-azabi-cyclo[3.1.0]hexane-3-car-boxamide] | < 1
CC(=O)c1cn(CC(=O)N2[C@H](C(=O)Nc3nc(Br)ccc3C)C[C@@]3(C)C[C@@H]23)c2ccc(NC3(C)COC3)cc12 [Compound 26, (1R,3S,5R)-2-(2-(3-acetyl-5-((3-methyloxetan-3-yl)-amino)-1H-indol-1-yl)-acetyl)-N-(6-bromo-3-methylpyridin-2-yl)-5-methyl-2-azabicyclo[3.1.0] hexane-3-carboxamide] | < 1
CC(=O)c1cn(CC(=O)N2[C@H](C(=O)Nc3nc(C(F)(F)F)ccc3C)C[C@@]3(C)C[C@@H]23)c2c(C)cc(-c3cnc4cc(C#N)nn4c3)cc12 [Compound 13, (1R,3S,5R)-2-(2-(3-acetyl-5-(2-cyanopyrazolo[1,5-a]pyrimidin-6-yl)-7-methyl-1H-indol-1-yl)acetyl)-5-methyl-N-(3-methyl-6-(trifluoromethyl)pyridin-2-yl)-2-azabicyclo[3.1.0] hexane-3-carboxamide] | < 1
CC(=O)c1cn(CC(=O)N2[C@H](C(=O)Nc3nc(Br)ccc3Cl)C[C@@]3(C)C[C@@H]23)c2c(C)cc(-c3cnc(C)nc3)cc12 [Compound 68, (1R,3S,5R)-2-(2-(3-acetyl-7-methyl-5-(2-methylpyr-imidin-5-yl)-1H-indol-1-yl)acetyl)-N-(6-bromo-3-chloropyridin-2-yl)-5-methyl-2-azabicyclo[3.1.0] hexane-3-carboxamide] | < 1
CC(=O)c1cn(CC(=O)N2[C@H](C(=O)N[C@H](C)C(F)=C(C)C)C[C@@]3(C)C[C@@H]23)c2c(C)nc(-c3cnc(C)nc3)cc12 [Compound 36, (1R,3S,5R)-2-(2-(3-acetyl-7-methyl-5-(2-methylpyr-imidin-5-yl)-1H-pyrrolo [2,3-c]pyridin-1-yl)acetyl)-N-((R)-3-fluoro-4-methyl-pent-3-en-2-yl)-5-methyl-2-azabicyclo[3.1.0]hexane-3-carboxamide] | < 1
